# Target: T1, human BK channels (Homo sapiens, UniProt Q12791)
# T1 construct: expressed in transfected cells; host or cells: Xenopus oocytes
# Assay: Electrophysiological determination of BK current, two-electrode voltage clamp in Xenopus oocytes
# Type: cell-based
# Details: 30 μM; increase of BK current relative to the basal current; Xenopus oocytes expressing human BK channels
# Method: In this experiment we investigated the influence of the compounds of the invention on the membrane currents when determined electrophysiologically on Xenopus Oocytes capable of expressing human BK channels, and the current through the channels is recorded using the classical two-electrode voltage clamp technique.
# The results of these determinations are presented in Table 1 below, and presented as the increase of BK current relative to the basal current.
# T1 sequence (Q12791 whole entry): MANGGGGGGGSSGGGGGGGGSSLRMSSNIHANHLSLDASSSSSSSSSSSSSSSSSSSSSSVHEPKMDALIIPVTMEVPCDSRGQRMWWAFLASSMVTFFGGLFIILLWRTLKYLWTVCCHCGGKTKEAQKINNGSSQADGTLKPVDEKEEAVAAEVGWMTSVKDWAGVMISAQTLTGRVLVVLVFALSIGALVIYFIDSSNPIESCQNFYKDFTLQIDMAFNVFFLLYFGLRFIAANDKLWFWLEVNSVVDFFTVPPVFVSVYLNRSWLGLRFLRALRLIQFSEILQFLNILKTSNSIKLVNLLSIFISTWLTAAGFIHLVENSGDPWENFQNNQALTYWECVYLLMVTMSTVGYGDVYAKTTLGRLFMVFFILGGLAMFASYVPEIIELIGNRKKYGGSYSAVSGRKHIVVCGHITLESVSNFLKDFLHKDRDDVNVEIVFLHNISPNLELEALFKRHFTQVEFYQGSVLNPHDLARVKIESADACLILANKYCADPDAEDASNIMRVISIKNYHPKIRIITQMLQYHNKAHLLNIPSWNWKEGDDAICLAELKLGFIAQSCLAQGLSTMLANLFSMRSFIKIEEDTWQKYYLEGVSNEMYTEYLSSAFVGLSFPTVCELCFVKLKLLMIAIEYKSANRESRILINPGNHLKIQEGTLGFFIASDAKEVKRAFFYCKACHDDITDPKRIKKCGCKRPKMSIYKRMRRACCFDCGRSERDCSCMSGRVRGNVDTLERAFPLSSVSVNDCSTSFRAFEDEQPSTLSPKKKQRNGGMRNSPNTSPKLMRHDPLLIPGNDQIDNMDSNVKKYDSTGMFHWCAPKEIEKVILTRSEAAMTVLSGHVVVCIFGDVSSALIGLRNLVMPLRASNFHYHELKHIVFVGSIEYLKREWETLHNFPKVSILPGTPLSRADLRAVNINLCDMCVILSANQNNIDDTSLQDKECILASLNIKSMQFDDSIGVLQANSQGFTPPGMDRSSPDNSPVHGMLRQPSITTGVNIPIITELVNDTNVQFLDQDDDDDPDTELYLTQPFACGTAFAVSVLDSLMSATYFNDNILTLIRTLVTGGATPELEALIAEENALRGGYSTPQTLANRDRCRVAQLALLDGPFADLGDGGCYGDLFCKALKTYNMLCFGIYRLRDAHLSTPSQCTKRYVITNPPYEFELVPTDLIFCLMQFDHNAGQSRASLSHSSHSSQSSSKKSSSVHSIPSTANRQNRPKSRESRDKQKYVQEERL
row,Relative Increase of BK Current,Structure (SMILES)
1,1342%,"ONC(=Nc1ccc(-c2ccc(C(F)(F)F)cc2)cc1-c1nnn[nH]1)c1cc(C(F)(F)F)cc(C(F)(F)F)c1 [Compound 3, N-Hydroxy-N′-[3-(1H-tetrazol-5-yl)-4′-trifluoromethyl-biphenyl-4-yl]-3,5-bis-trifluoromethyl-benzamidine]"
2,252%,"O=c1[nH]nc(-c2cc(C(F)(F)F)cc(C(F)(F)F)c2)n1-c1ccc(-c2ccc(C(F)(F)F)cc2)cc1-c1nn[nH]n1 [Compound 2, 5-(3,5-Bis-trifluoromethyl-phenyl)-4-[3-(2H-tetrazol-5-yl)-4′-trifluoromethyl-biphenyl-4-yl]-2,4-dihydro-[1,2,4]triazol-3-one]"
3,1118%,"NNC(=Nc1ccc(-c2ccc(C(F)(F)F)cc2)cc1-c1nnn[nH]1)c1cc(C(F)(F)F)cc(C(F)(F)F)c1 [Compound 1, N-Amino-N′-[3-(1H-tetrazol-5-yl)-4′-trifluoromethyl-biphenyl-4-yl]-3,5-bis-trifluoromethyl-benzamidine]"
